Patent US7045361B2, “Analyte sensing via acridine-based boronate biosensors” (Medtronic MiniMed, Inc., priority 2001, dated 2006)

Assays:
[1] = Glucose transduction of monotopic acridine-based boronate biosensor molecules by fluorescence spectroscopy; conditions: for wavelength of maximum intensity (Imax): PBS with DMSO
Protocol: Glucose transduction of particular acridine-based boronate bio sensor molecules was observed using fluorescence spectroscopy. Fluorescence measurements were taken on a Yorbin Fluorolog instrument. […]
Aliquots of glucose were added and responses were measured at 436 nm, or maximum intensity. (See Table 3).
Another transduction experiment was performed with ACRAB at 500 nm, or approximately 25% of the value of maximum intensity. The data taken at 500 nm generally parallel those taken at 436 nm, thus indicating no decrease in performance of the acridine-based boronate biosensor molecule at the longer wavelength. This shift of 83 nm is very significant in that it provides about a 10-fold increase of transmission of light through tissue and skin.
MEACRAB was then diluted 100-fold to 100 nM and transduction at conditions of ambient temperature. The solution contained 0.5% DMSO.

[2] = Comparative analysis of the spectral properties of fluorophores; assay type: physicochemical; conditions: for λem(max) / λex / λem(50% max): PBS containing 0.5% DMSO at 21° C; for λem(50% max): bathochromic wavelength at 50% of maximum
Text: A comparative analysis of the spectral properties of certain fluorophores is shown Table 1. […] This phenomenon is unexpected given the chemical similarity between anthracene and an acridine. As shown in the Table 1, the acridine orange fluorophore emits at even longer wavelengths.

[3] = Emission spectra in presence and absence of glucose (FIG. 14A/14B transduction experiment)
Text: FIG. 14A depicts the results of a transduction experiment with anthracene boronate.
FIG. 14B depicts the results of a transduction experiment with methylacridine boronate (MEACRAB) in the presence of glucose.
A comparison of anthracene boronate and methylacridine boronate (MEACRAB) in the presence and absence of glucose further highlights the unexpected differences between these two fluorescent molecules in terms of their respective fluorescent properties, such as transduction of glucose at longer wavelengths, i.e., glucose sensing capacity as indicated by a change in fluorescence in the presence of glucose at longer wavelengths. These differences are illustrated in FIG. 14A and FIG. 14B, which depicts the emission spectra of anthracene boronate and methylacridine boronate, respectively in the presence and absence of glucose. From inspection of FIG. 14A, it can be observed that at about 440 nm, which is about at a peak of next to maximum intensity, anthracene boronate yields about 25% transduction in the presence of glucose. […] For instance, at about 500 nm, methylacridine boronate yields about 25% transduction in the presence of glucose. Thus, the ability of an acridine boronate, such as methylacridine boronate, to transduce in the presence of glucose at longer wavelengths, as compared with anthracene boronate, is unexpected. […]

Molecule: aminomethylhydroxypentyl-acridine boronate [ACRAB]
- intensity at 500 nm relative to the value of maximum intensity ([1]; 500 nm): approximately 25%
- Transduction ([1]; 500 nm, glucose 49 mg/dL): 11%
- Transduction ([1]; 500 nm, glucose 149 mg/dL): 24%
- Transduction ([1]; 500 nm, glucose 198 mg/dL): 37%
- Transduction ([1]; 500 nm, glucose 284 mg/dL): 47%
- Transduction ([1]; 500 nm, glucose 374 mg/dL): 56%
- Transduction ([1]; 500 nm, glucose 441 mg/dL): 62%
- Transduction ([1]; 500 nm, glucose 559 mg/dL): 67%
- wavelength of maximum intensity (Imax) [1]: 436 nm
- Transduction ([1]; approx 10 μM, PBS pH 7.4, 0.5% DMSO, 436 nm, glucose 50 mg/dL): 15%
- Transduction ([1]; approx 10 μM, PBS pH 7.4, 0.5% DMSO, 436 nm, glucose 150 mg/dL): 27%
- Transduction ([1]; approx 10 μM, PBS pH 7.4, 0.5% DMSO, 436 nm, glucose 200 mg/dL): 41%
- Transduction ([1]; approx 10 μM, PBS pH 7.4, 0.5% DMSO, 436 nm, glucose 300 mg/dL): 48%

Molecule: c1ccc2cc3ccccc3cc2c1 [Anthracene]
- λem(max) [2]: 417 nm
- λex [2]: 370 nm
- λem(50% max) [2]: 428 nm
- emission intensity at about 480 nm relative to intensity of maximum emission wavelength [2]: no detectable emission

Molecule: CN(C)c1ccc2cc3ccc(N(C)C)cc3nc2c1 [Acridine Orange, 3,6-bis(dimethylamino)acridine]
- emission profile detectable out to [2]: 575–600 nm
- maximum emission [2]: 525 nm
- λem(max) [2]: 526 nm
- λex [2]: 493 nm
- λem(50% max) [2]: 567 nm

Molecule: c1ccc2nc3ccccc3cc2c1 [Acridine]
- λem(max) [2]: 428 nm
- λex [2]: 360 nm
- λem(50% max) [2]: 480 nm
- emission intensity at about 480 nm relative to intensity of maximum emission wavelength [2]: approximately 50%

Molecule: Cc1ccc2nc3ccccc3c(CN(CCCCCO)Cc3ccccc3B(O)O)c2c1 [MEACRAB, aminomethylhydroxypentyl-methylacridine boronate]
- Transduction ([1]; 100 nM, 0.5% DMSO, ambient temperature, 509 nm, glucose 87 mg/dL): 21%
- Transduction ([1]; 100 nM, 0.5% DMSO, ambient temperature, 509 nm, glucose 173 mg/dL): 29%
- Transduction ([1]; 100 nM, 0.5% DMSO, ambient temperature, 509 nm, glucose 256 mg/dL): 53%
- Transduction ([1]; 100 nM, 0.5% DMSO, ambient temperature, 509 nm, glucose 341 mg/dL): 77%
- Transduction ([1]; 100 nM, 0.5% DMSO, ambient temperature, 509 nm, glucose 425 mg/dL): 94%
- Transduction ([1]; 100 nM, 0.5% DMSO, ambient temperature, 509 nm, glucose 510 mg/dL): 109%
- Transduction ([1]; 100 nM, 0.5% DMSO, ambient temperature, 509 nm, glucose 603 mg/dL): 118%
- Transduction ([1]; 100 nM, 0.5% DMSO, ambient temperature, 509 nm, glucose 683 mg/dL): 121%
- Transduction ([1]; 100 nM, 0.5% DMSO, ambient temperature, 509 nm, glucose 767 mg/dL): 126%
- Transduction ([1]; 100 nM, 0.5% DMSO, ambient temperature, 509 nm, glucose 834 mg/dL): 134%
- Transduction ([1]; 100 nM, 0.5% DMSO, ambient temperature, 509 nm, glucose 927 mg/dL): 142%
- Transduction ([1]; 100 nM, 0.5% DMSO, ambient temperature, 509 nm, glucose 1012 mg/dL): 158%
- Transduction ([1]; 10 μM in PBS, 4% DMSO, 500 nm, glucose 93 mg/dL): 30%
- Transduction ([1]; 10 μM in PBS, 4% DMSO, 500 nm, glucose 184 mg/dL): 60%
- Transduction ([1]; 10 μM in PBS, 4% DMSO, 500 nm, glucose 275 mg/dL): 100%
- Transduction ([1]; 10 μM in PBS, 4% DMSO, 500 nm, glucose 364 mg/dL): 120%
- Transduction ([1]; 10 μM in PBS, 4% DMSO, 500 nm, glucose 459 mg/dL): 170%
- Transduction ([1]; 10 μM in PBS, 4% DMSO, 500 nm, glucose 547 mg/dL): 190%
- Transduction ([1]; 10 μM in PBS, 4% DMSO, 500 nm, glucose 650 mg/dL): 220%
- intensity at 500 nm relative to the value of maximum intensity ([1]; 500 nm): 25%
- wavelength of maximum intensity (Imax) [1]: 438 nm
- performance at 100 nM compared with ACRAB, or MEACRAB itself, at 10 μM ([1]; emission wavelength of 500 nm, 0.5% DMSO): performed better
- transduction in the presence of glucose ([3]; at about 440 nm): about 50%
- transduction in the presence of glucose ([3]; at about 500 nm): about 25%
